{
  "source": "patent US20030044413A1",
  "about": "“Methods of limiting apoptosis of cells” (Regents of the University of Minnesota, priority 1998, published 2003)",
  "key": {"astrocytes": {"system": "astrocytes", "assay": "Unconjugated bilirubin-induced apoptosis in astrocytes", "format": "cell-based, rat", "settings": "for apoptosis, increase over control values: 4 hours"}, "primary rat hepatocytes": {"system": "primary rat hepatocytes", "assay": "Ethanol-induced apoptosis, Hoechst staining, primary rat hepatocytes", "format": "cell-based", "settings": "0.5% ethanol", "procedure": "(§1) Incubation of cells with ethanol, TGF-β1, anti-Fas antibody or okadaic acid. Freshly isolated rat hepatocytes were cultured for 3 h as described above and then incubated with William's E medium supplemented with either 0.5% ethanol, 50 μM UDCA, ethanol plus UDCA, or no addition (control) for 2 h and 4 h. HuH-7 cells were incubated with Dulbecco's medium supplemented with either 1 nM TGF-β1 (R & D Systems, Minneapolis, Minn.), 100 μM UDCA, TGF-β1+UDCA, or no addition (control) for 24 h, 48 h, and 72 h. Hep G2 cells were incubated with Dulbecco's medium supplemented with either 0.5 μg/ml of anti-Fas antibody CH-11 (Upstate Biotechnology, Inc., Lake Placid, N.Y.), 100 μM UDCA, CH-11+UDCA, or no addition for 48 h. Both HuH-7 cells and human osteogenic sarcoma Saos-2 cells were cultured in Dulbecco's medium supplemented with either 50 nM okadaic acid (Boehringer Mannheim Biochemicals, Inc, Indianapolis, Ind.), 100 μM UDCA, okadaic acid+UDCA, or no addition for 48 h. In all the combination groups, cells were pretreated with UDCA alone for 60 min prior to addition of ethanol, TGF-β1, anti-Fas antibody or okadaic acid.\n(§2) Morphological evaluation of apoptosis. Morphology was performed as described previously (Oberhammer et al., Proc. Natl. Acad. Sci. USA 89, 5408-5412 (1992)). Briefly, after fixation (with 4% formaldehyde in PBS, pH 7.4, for 10 min at room temperature), the cells were incubated with Hoechst dye 33258 (Sigma Chemical Co.) at 5 μg/ml in PBS for 5 min, washed with PBS and mounted with PBS:glycerol (3:1, v/v). Fluorescence was visualized with a Zeiss standard fluorescence microscope (Carl Zeiss, Inc., Thornwood, N.Y.). Photographs were taken with Kodak Ektar-1000 film (Eastman Kodak Co.). Stained nuclei were scored by blind analysis and categorized according to the condensation and staining characteristics of chromatin. Normal nuclei were identified as noncondensed chromatin dispersed over the entire nucleus. Apoptotic nuclei were identified by condensed chromatin, contiguous to the nuclear membrane, as well as nuclear fragmentation of condensed chromatin. Three fields per dish of approximately 500 nuclei were counted; mean values are expressed as the percent of apoptotic nuclei."}, "rat primary hepatocytes": {"system": "rat primary hepatocytes", "assay": "FACS analysis of ΔΨm and ROS, rat primary hepatocytes", "format": "cell-based", "settings": "1% ETOH, 4 h, hepatocytes", "procedure": "A ΔΨm and ROS measurement. ΔΨm and ROS production were measured by FACScan (Becton Dickinson) analysis. Freshly isolated rat hepatocytes were cultured for 3 h as described above and then incubated with William's E medium supplemented with either 100 μM DCA, 100 μM UDCA, equal molar amounts of both, or no bile acid (control), for 6 h. Rat hepatocytes were also cultured with either 1% ethanol, 100 μM UDCA, ethanol+UDCA, or no addition (control) for 4 h. HuH-7 cells, Hep G2 cells, and human osteogenic sarcoma Saos-2 cells were incubated with TGF-β1, anti-Fas antibody or okadaic acid, respectively, for 48 h under the same conditions as outlined above. For combination studies, cells were pretreated with UDCA or hyodeoxycholic acid for 60 min prior to addition of DCA, ethanol, TGF-β1, anti-Fas antibody or okadaic acid. Aliquots of 1.0×10^6 cells were incubated for 15 min at 37° C. with 50 nM 3,3′-dihexyloxacarbocyanine iodide [DiOC6(3)], 2 μM dihydroethidium (HE), or 5 μM 2′,7′-dichlorofluorescin diacetate (H2DCFDA; Molecular Probes, Inc. Eugene, Oreg.) and analyzed by cytofluorometry (Cathcart et al., Anal. Biochem., 134, 111-116 (1983); Zamzami et al., J. Exp. Med., 181, 1661-1672 (1 995); Carter et al., J. Leukocyte Biol., 55, 253-258 (1994)).\nRat primary hepatocytes were incubated with 100 μM DCA and 1% ETOH for 6 h and 4 h, respectively; HuH-7 cells with 1 nM TGF-β1 for 48 h; Hep G2 cells with 0.5 μg/ml anti-Fas antibody (CH-11) for 48 h, and Saos-2 cells with 50 nM okadaic acid (OA) for 48 h. In each combination group, cells were pretreated with 100 μM UDCA alone for 60 min prior to addition of the inducer. Aliquots of 1.0×10^6 cells were incubated for 15 min at 37° C. with 5 μM 2′,7′-dichlorofluorescin diacetate (H2DCFDA) and analyzed by cytofluorometry."}, "[1]": {"system": "isolated rat liver mitochondria", "assay": "MPT spectrophotometric assay (mitochondrial swelling)", "settings": "for effect on DCA-induced MPT / mitochondrial swelling: preincubation (500 μM bile acid or cyclosporine A) before DCA", "procedure": "Isolation of mitochondria and MPT assays. Low calcium liver mitochondria were isolated from male 200-250 g Sprague-Dawley rats by density gradient centrifugation as previously published (Botla et al., J. Pharmacol. Exp. Ther., 272, 930-938 (1995); Walajtys-Rhode et al., J. Biol. Chem., 267, 370-379 (1992); and Sokol et al., Gastroenterology, 99, 1061-1071 (1990)). The mitochondrial fraction was resuspended in 30 ml of wash buffer containing 0.1 M KCl, 5 mM 3-(N-morpholino)-propane sulfonic acid (MOPS), and 1 mM EGTA, at pH 7.4 and centrifuged at 7,000×g for 10 min at 4° C. A final wash was carried out in chelex-100-treated buffer (Bio-Rad Laboratories, Hercules, Calif.) containing no EGTA. The resulting pellet was suspended in 4 ml of chelex--100-treated buffer containing 125 mM sucrose, 5 mM HEPES, 50 mM KCl and 2 mM KH2PO4. The usual yield of mitochondria was approximately 25 mg of protein per gram of liver tissue. Mitochondrial purity was established as previously described (Botla et al., J. Pharmacol. Exp. Ther., 272, 930-938 (1995)). Protein concentrations were determined using the Bio-Rad protein assay kit as specified by the manufacturer.\nMPT was measured spectrophotometrically as described previously (Botla et al., J. Pharmacol. Exp. Ther., 272, 930-938 (1995); Pastorino et al., J. Biol. Chem., 268, 13791-13798 (1993)), during 10 min incubations at 25° C. using mitochondria (1 mg of protein/ml) suspended in 3 ml of a chelex-100-treated buffer containing 0.1 M NaCl, 10 mM MOPS, pH 7.4. Swelling was monitored at 540 nm in a Beckman DU 64 spectrophotometer. Basal values of mitochondria absorbance were measured for 5 min, and the optical density was monitored another 5 min after addition of 200 μM DCA or 80 μM phenylarsine oxide (PhAsO; Sigma Chemical Co.). For coincubation studies, mitochondria were preincubated with 500 μM UDCA or hyodeoxycholic acid for 5 min at 25° C. prior to the assay.\nSpectrophotometric and Fluorimetric Assays of MPT. The MPT was assessed using a spectrophotometric assay measuring high amplitude rapid changes in mitochondrial volume, and a fluorimetric assay quantitating the release of calcein from calcein-loaded mitochondria. The MPT was measured spectrophotometrically as previously described (Pastorino, J. Biol. Chem., 268, 13791-13798 (1993); Botla et al., J. Pharmacol. Exp. Ther., 272, 930-938 (1995)). Briefly, mitochondria (3 mg protein) were incubated in 3 ml of chelex-100-treated respiration buffer (0.1 M NaCl, 10 mM MOPS, pH 7.4) for 10 min at 25° C. and monitored at 540 nm in a Beckman DU 64 spectrophotometer. Basal values of mitochondrial absorbance were measured for 5 min, and the optical density was monitored for an additional 5 min after addition of increasing concentrations of DCA (50-200 μM) or 80 μM phenylarsine oxide (PhAsO; Sigma Chemical Co., St. Louis, Mo.). For the coincubation studies, mitochondria were preincubated with UDCA (100-500 μM), or 500 μM hyodeoxycholic acid (HDCA; Sigma Chemical Co.) for 5 min at 25° C. prior to initiation of the assay.\nMeasurement of MPT and determination of cytochrome c content in supernatants and mitochondrial pellets after MPT. The MPT was assessed using a spectrophotometric assay measuring high amplitude rapid changes in mitochondria volume. Mitochondria (1 mg protein) were incubated in 1 ml of chelex-100-treated respiration buffer (0.1 M NaCl, 10 mM MOPS, pH 7.4) for 10 min at 25° C. and swelling was monitored at 540 nm in a Beckman DU 64 spectrophotometer. Malate and glutamate (1 mM) were added to initiate respiration, and 3 min later rotenone (5 μM), an inhibitor of complex I of the respiratory chain, was also added to the supension. Basal values of mitochondria absorbance were measured for 5 min, and the optical density was monitored for an additional 5 min after addition 200 μM DCA or 80 μM phenylarsine oxide (PhAsO; Sigma Chemical Co.). […]"}, "cytochrome c": {"system": "cytochrome c", "assay": "Cytochrome c release from isolated mitochondria after MPT", "set-up": "species or system rat", "settings": "added to isolated mitochondria before DCA", "description": "Mitochondria isolation. […] In short, animals were sacrificed by exsanguination under ether anesthesia and the livers removed and rinsed in normal saline. Approximately 10 g of minced liver was homogenized at a speed of 800 rpm using 6 complete up and down strokes with a speed controlled mechanical skill drill and a teflon pestle (Tri-R Model K41, Tri-R Instruments, Rockville Center, N.Y.) in an ice-cold solution of 70 mM sucrose, 220 mM mannitol, 1 mM EGTA and 10 mM HEPES, pH 7.4 as a 10% (wt/vol) homogenate. The homogenate was centrifuged at 600×g for 10 min at 4° C. in an SS-34 rotor in a Sorvall RC5C centrifuge (Sorvall Instruments, Newtown, Conn.), and the postnuclear supernatant was centrifuged at 7,000×g for 10 min at 4° C. […] The pellet was resuspended in 2 mL of homogenate buffer, and 1 mL of the resuspended pellet was carefully layered onto a 35-mL self-generating gradient containing 0.25 M sucrose, 1 mM EGTA and percoll (Pharmacia Fine Chemicals, Piscataway, N.J.) (75:25, vol/vol). The mitochondria were purified by centrifugation at 43,000×g for 30 min at 4° C. using a Beckman Ti60 rotor and a Beckman ultracentrifuge model L8-55 (Beckman Instruments, Inc., Schaumburg, Ill.). The clear supernatant solution removed and the lower turbid layer was resuspended in 30 mL of wash buffer containing 0.1 M KCl, 5 mM 3-(N-morpholino)-propane sulfonic acid (MOPS), and 1 mM EGTA, at pH 7.4 and centrifuged at 7,000×g for 10 min at 4° C. The resulting mitochondria pellet was washed in wash buffer two times. A final wash was carried out in chelex-100-treated buffer (Bio-Rad Laboratories, Richmond, Va.; 200-400 mesh, potassium form) without EGTA. The pellet was suspended in 4 mL of chelex-100-treated resuspension buffer containing 125 mM sucrose, 50 mM KCl, 5 mM HEPES, and 2 mM KH2PO4. The usual yield of mitochondria was approximately 25 mg of protein per gram of liver tissue. Mitochondria were used for experiments within 3 h of isolation. Aliquots were removed for examining the purity of the mitochondria preparation.\nMeasurement of MPT and determination of cytochrome c content in supernatants and mitochondrial pellets after MPT. The MPT was assessed using a spectrophotometric assay measuring high amplitude rapid changes in mitochondria volume. Mitochondria (1 mg protein) were incubated in 1 ml of chelex-100-treated respiration buffer (0.1 M NaCl, 10 mM MOPS, pH 7.4) for 10 min at 25° C. and swelling was monitored at 540 nm in a Beckman DU 64 spectrophotometer. […] Basal values of mitochondria absorbance were measured for 5 min, and the optical density was monitored for an additional 5 min after addition 200 μM DCA or 80 μM phenylarsine oxide (PhAsO; Sigma Chemical Co.). […]"}, "HuH-7 cells": {"system": "HuH-7 cells", "assay": "TGF-β1-induced apoptosis, Hoechst staining, HuH-7 cells", "format": "cell-based, human", "settings": "1 nM TGF-β1, 100 μM bile acid, 72 h", "procedure": "as §1\nHuH-7 cells were treated with 1 nM TGF-β1, 100 μM of either hyodeoxycholic acid, taurocholic acid, tauroursodeoxycholic acid (Sigma Chemical Co.) or glycoursodeoxycholic acid (Steraloids Inc., Wilton, N.H.), or a combination of TGF-β1 plus the individual bile acids for 72 h. HeLa and Cos-7 cells were incubated with 50 nM okadaic acid, 100 μM of either tauroursodeoxycholic acid or glycoursodeoxycholic acid, or a combination of okadaic acid plus the individual bile acids for 24 h. In the combination groups, cells were pretreated with the bile acid alone for 60 min prior to incuation with TGF-β1 or okadaic acid. In all studies, the medium was gently removed at the indicated times and scored for nonviable cells. The attached cells were fixed for morphologic evaluation of apoptosis.\nas §2, with “Morphology was performed as described previously (Oberhammer et al., Proc. Natl. Acad. Sci. USA 89, 5408-5412 (1992)). Briefly, after fixation (with 4% formaldehyde in PBS, pH 7.4, for 10 min at room temperature), the cells were incubated with Hoechst dye 33258 (Sigma Chemical Co.) at 5 μg/ml in PBS for 5 min, washed with PBS and mounted with PBS:glycerol (3:1, v/v).” left out"}, "stroke injury": {"system": "stroke injury", "assay": "Stroke injury in a rat model", "format": "in vivo", "settings": "preliminary results"}},
  "note": "“And” between values parts separate entries of the source, which are not always exact repeats. Identical values can stand only once. “Also recorded” adds a separate entry of the source.",
  "data": [
    {"compound": "C=CC1=C(C)/C(=C/c2[nH]c(Cc3[nH]c(/C=C4\\NC(=O)C(C)=C4C=C)c(C)c3CCC(=O)O)c(CCC(=O)O)c2C)NC1=O", "note": "[UCB, unconjugated bilirubin]", "values": [
      {"measurement": "apoptosis, increase over control values", "setting": "astrocytes; 17 μM UCB", "value": "about 6 fold"},
      {"measurement": "apoptosis, increase over control values", "setting": "astrocytes; 85.5 μM UCB", "value": "about 11 fold"},
      {"measurement": "percentage of apoptotic cells", "setting": "astrocytes; 85.5 μM UCB, 22 hours", "value": "about 48%"},
      {"measurement": "cell viability", "setting": "astrocytes; UCB treatment", "value": "concentration and time dependent decrease in cell viability"}
    ]},
    {"compound": "CCO", "note": "[ethanol]", "values": [
      {"measurement": "increase in apoptosis over control values", "setting": "primary rat hepatocytes; 2 h", "value": 10, "unit": "fold"},
      {"measurement": "increase in apoptosis", "setting": "primary rat hepatocytes; time not stated (summary)", "value": 12, "unit": "fold"},
      {"measurement": "Peroxides Production (%) Inducer", "setting": "rat primary hepatocytes", "value": "17.9 ± 5.4", "unit": "%"},
      {"measurement": "mitochondrial swelling with the substance alone", "setting": "[1]; substance alone added to isolated mitochondria", "value": "did not induce mitochondria swelling"}
    ]},
    {"compound": "C[C@H](CCC(=O)NCC(=O)O)[C@H]1CC[C@H]2[C@@H]3[C@@H](O)C[C@@H]4C[C@H](O)CC[C@]4(C)[C@H]3CC[C@]12C", "note": "[glycoursodeoxycholic acid]", "values": [
      {"measurement": "effect on deoxycholic acid-induced cytochrome c release", "setting": "cytochrome c", "value": "Inhibition of deoxycholic acid-induced MPT and cytochrome c release were also observed"},
      {"measurement": "decrease of TGF-β1 apoptosis", "setting": "HuH-7 cells", "value": "37.5±5.1", "unit": "%"},
      {"measurement": "effect on DCA-induced MPT / mitochondrial swelling", "setting": "[1]", "value": "Inhibition of deoxycholic acid-induced MPT"}
    ]},
    {"compound": "C[C@H](CCC(=O)NCCS(=O)(=O)O)[C@H]1CC[C@H]2[C@@H]3[C@H](O)C[C@@H]4C[C@H](O)CC[C@]4(C)[C@H]3C[C@H](O)[C@]12C", "note": "[taurocholic acid]", "values": [
      {"measurement": "inhibition of TGF-β1-induced apoptosis", "setting": "HuH-7 cells", "value": "did not; also recorded: neither hyodeoxycholic acid nor taurocholic acid showed inhibition"}
    ]},
    {"compound": "C[C@H](CCC(=O)NCCS(=O)(=O)O)[C@H]1CC[C@H]2[C@@H]3[C@@H](O)C[C@@H]4C[C@H](O)CC[C@]4(C)[C@H]3CC[C@]12C", "note": "[tauroursodeoxycholic acid]", "values": [
      {"measurement": "effect on deoxycholic acid-induced cytochrome c release", "setting": "cytochrome c", "value": "Inhibition of deoxycholic acid-induced MPT and cytochrome c release were also observed"},
      {"measurement": "decrease of TGF-β1 apoptosis", "setting": "HuH-7 cells", "value": "45.8±7.9", "unit": "%"},
      {"measurement": "mitochondria viability following a stroke injury", "setting": "stroke injury", "value": "improvement in mitochondria viability"},
      {"measurement": "decrease of the area of stroke damage", "setting": "stroke injury; pretreatment, compared to control animals", "value": "up to 50%"},
      {"measurement": "effect on DCA-induced MPT / mitochondrial swelling", "setting": "[1]", "value": "Inhibition of deoxycholic acid-induced MPT"}
    ]},
    {"compound": "cyclosporine A", "values": [
      {"measurement": "inhibition of DCA-induced MPT (mitochondrial swelling)", "setting": "[1]; 200 μM DCA, pretreatment 500 μM UDCA or 5 μM cyclosporine A", "value": "> 45% and 45.8±5.4%"},
      {"measurement": "effect on DCA-induced MPT / mitochondrial swelling", "setting": "[1]", "value": "reduced deoxycholic acid-induced mitochondria swelling"}
    ]}
  ]
}
